Results reported in ChEMBL document CHEMBL5727723, “(S)-5-ethynyl-anabasine, derivatives thereof, and related compositions and methods of making and using” (2020).

Test: functional assay: Nematode eggs are isolated from fresh feces by centrifugation and flotation. The eggs are washed and inspected to confirm embryonation has not started. Each sample is tested at six concentrations of a test compound (e.g., 0.02, 0.05, 0.1, 0.25, 0.5 and 1.0 μg/ml) and a negative control (no compound). After incubation for 48 h, the assay is ended, and all eggs and larvae present in each well are counted. The Hill equation with a variable slope is used to fit the dose-response relations using GraphPad Prism. The EC50-values and 95% confidence intervals are calculated.

Structure (SMILES) | EC50
CN1CCC[C@H]1c1ccc[n+](C)c1 | < 100 µM
CN1CCCCC1c1cccnc1 (centres undefined) | < 100 µM
CN1C(=O)CC[C@H]1c1cccnc1 [COTININE] | < 100 µM
CN1CCCC1c1ccc(N)nc1 (centres undefined) | 12.2 µM
